Experimental data from patent US20140000882A1, “PETROLEUM RECOVERY PROCESS AND SYSTEM” (Shell Oil Company, priority 2012, published 2014).

Assay: Oil recovery from formation core by brine displacement followed by DMS displacement
Conditions: after waterflooding with brine
Procedure: Incremental recovery of oil from a formation core using an oil recovery formulation consisting of dimethyl sulfide following oil recovery from the core by water-flooding was measured to evaluate the effectiveness of DMS as a tertiary oil recovery agent.
Two 5.02 cm long Berea sandstone cores with a core diameter of 3.78 cm and a permeability between 925 and 1325 mD were saturated with a brine having a composition as set forth in Table 7.
After saturation of the cores with brine, the brine was displaced by a Middle Eastern Asphaltic crude oil having the characteristics as set forth above in Table 3 to saturate the cores with oil.
Oil was recovered from each oil saturated core by the addition of brine to the core under pressure and by subsequent addition of DMS to the core under pressure. Each core was treated as follows to determine the amount of oil recovered from the core by addition of brine followed by addition of DMS. Oil was initially displaced from the core by addition of brine to the core under pressure. A confining pressure of 1 MPa was applied to the core during addition of the brine, and the flow rate of brine to the core was set at 0.05 ml/min. The core was maintained at a temperature of 50° C. during displacement of oil from the core with brine. […]

oil remaining in the core after the waterflood recovered: approximately 60%
Structure (SMILES): CSC [Dimethyl Sulfide, dimethyl sulfide]
